Source: patent EP0908457B1, “3-(1,2-benzisothiazol- and isoxazol-5-Y1)-2,4(1H,3H)-pyrimidinedione or thione and 3-(1,2-benzisothiazol- and isoxazol-5-y1)-4(3H)-pyrimidinone or thione herbicidal agents” (BASF AKTIENGESELLSCHAFT, priority 1997, dated 1999)

Experiments:
[1] = test system: Echinochloa oryzoides (Ard.) Fritsch.; assay: Preemergence weed control under flooded paddy conditions, ECHORC (Watergrass (Calif.)); type: in vivo; details: preemergence, flooded paddy, rated three to four weeks after treatment; note: meaning of each grade not given here
Cyperus iria [2] = assay: Preemergence weed control under flooded paddy conditions, CYPIR (Rice Flatsedge); type: in vivo; details: preemergence, flooded paddy, rated three to four weeks after treatment; note: meaning of each grade not given here
[3] = test system: Cyperus serotinus, Rottb.; assay: Preemergence weed control under flooded paddy conditions, CYPSE (Flatsedge); type: in vivo; details: preemergence, rated three to four weeks after treatment; note: meaning of each grade not given here
[4] = test system: Monochoria vaginalis, Presl.; assay: Preemergence weed control under flooded paddy conditions, MOOVA (Monochoria); type: in vivo; details: preemergence, flooded paddy, rated three to four weeks after treatment; note: meaning of each grade not given here
Sagittaria pygmaea, L. [5] = assay: Preemergence weed control under flooded paddy conditions, SAGPY (Arrowhead (Pygmaea)); type: in vivo; details: preemergence, flooded paddy, rated three to four weeks after treatment; note: meaning of each grade not given here
[6] = test system: Echinochloa oryzoides (Ard.) Fritsch.; assay: Postemergence weed control under flooded paddy conditions, ECHORC (Watergrass (Calif.)); type: in vivo; details: rated three to four weeks after treatment
Cyperus iria [7] = assay: Postemergence weed control under flooded paddy conditions, CYPIR (Rice Flatsedge); type: in vivo; details: rated three to four weeks after treatment
[8] = test system: Cyperus serotinus, Rottb.; assay: Postemergence weed control under flooded paddy conditions, CYPSE (Flatsedge); type: in vivo; details: rated three to four weeks after treatment
[9] = test system: Monochoria vaginalis, Presl.; assay: Postemergence weed control under flooded paddy conditions, MOOVA (Monochoria); type: in vivo; details: rated three to four weeks after treatment
Sagittaria pygmaea, L. [10] = assay: Postemergence weed control under flooded paddy conditions, SAGPY (Arrowhead (Pygmaea)); type: in vivo; details: rated three to four weeks after treatment
[11] = test system: Oryza sativa, (L.) Tebonnet; assay: Rice tolerance to post-transplant applications under flooded paddy conditions (Example 187), ORYSAT (Rice, Tebonnet); details: rated three to four weeks after treatment
[12] = test system: Oryza sativa, (L.) Tebonnet; assay: Rice tolerance to post-transplant applications under flooded paddy conditions (Example 188), ORYSAT (Rice, Tebonnet); details: rated three to four weeks after treatment

SMILES: Cc1cc(O)c(-c2nsc3ccc(-n4c(=O)cc(C(F)(F)F)n(C)c4=O)cc23)cc1C [Example 11, 3-[3-(6-Hydroxy-3,4-xylyl)-1,2-benzisothiazol-5-yl]-1-methyl-6-(trifluoromethyl)-2,4(1H,3H)-pyrimidinedione]
- herbicidal effect rating, ECHORC ([1]; 0.0625 kg/ha): 7.0
- herbicidal effect rating, ECHORC ([1]; 0.1250 kg/ha): 8.0
- herbicidal effect rating, ECHORC ([1]; 0.2500 kg/ha): 8.0
- herbicidal effect rating, ECHORC ([1]; 0.5000 kg/ha): 9.0
- herbicidal effect rating, CYPIR (Cyperus iria [2]; 0.0625 kg/ha): 9.0
- herbicidal effect rating, CYPIR (Cyperus iria [2]; 0.1250 kg/ha): 9.0
- herbicidal effect rating, CYPIR (Cyperus iria [2]; 0.2500 kg/ha): 9.0
- herbicidal effect rating, CYPIR (Cyperus iria [2]; 0.5000 kg/ha): 9.0
- herbicidal effect rating, CYPSE ([3]; 0.0625 kg/ha): 2.0
- herbicidal effect rating, CYPSE ([3]; 0.1250 kg/ha): 2.0
- herbicidal effect rating, CYPSE ([3]; 0.2500 kg/ha): 2.0
- herbicidal effect rating, CYPSE ([3]; 0.5000 kg/ha): 7.0
- herbicidal effect rating, MOOVA ([4]; 0.0625 kg/ha): 9.0
- herbicidal effect rating, MOOVA ([4]; 0.1250 kg/ha): 9.0
- herbicidal effect rating, MOOVA ([4]; 0.2500 kg/ha): 9.0
- herbicidal effect rating, MOOVA ([4]; 0.5000 kg/ha): 9.0
- herbicidal effect rating, SAGPY (Sagittaria pygmaea, L. [5]; 0.0625 kg/ha): 0.0
- herbicidal effect rating, SAGPY (Sagittaria pygmaea, L. [5]; 0.1250 kg/ha): 0.0
- herbicidal effect rating, SAGPY (Sagittaria pygmaea, L. [5]; 0.2500 kg/ha): 2.0
- herbicidal effect rating, SAGPY (Sagittaria pygmaea, L. [5]; 0.5000 kg/ha): 9.0
- herbicidal effect rating, ECHORC ([6]; Rate 0.0313 kg/ha): 0.0
- herbicidal effect rating, ECHORC ([6]; Rate 0.0625 kg/ha): 0.0
- herbicidal effect rating, ECHORC ([6]; Rate 0.1250 kg/ha): 2.0
- herbicidal effect rating, ECHORC ([6]; Rate 0.2500 kg/ha): 4.0
- herbicidal effect rating, ECHORC ([6]; Rate 0.5000 kg/ha): 7.0
- herbicidal effect rating, CYPIR (Cyperus iria [7]; Rate 0.0313 kg/ha): 8.0
- herbicidal effect rating, CYPIR (Cyperus iria [7]; Rate 0.0625 kg/ha): 9.0
- herbicidal effect rating, CYPIR (Cyperus iria [7]; Rate 0.1250 kg/ha): 9.0
- herbicidal effect rating, CYPIR (Cyperus iria [7]; Rate 0.2500 kg/ha): 9.0
- herbicidal effect rating, CYPIR (Cyperus iria [7]; Rate 0.5000 kg/ha): 9.0
- herbicidal effect rating, CYPSE ([8]; Rate 0.0313 kg/ha): 0.0
- herbicidal effect rating, CYPSE ([8]; Rate 0.0625 kg/ha): 0.0
- herbicidal effect rating, CYPSE ([8]; Rate 0.1250 kg/ha): 0.0
- herbicidal effect rating, CYPSE ([8]; Rate 0.2500 kg/ha): 0.0
- herbicidal effect rating, CYPSE ([8]; Rate 0.5000 kg/ha): 0.0
- herbicidal effect rating, MOOVA ([9]; Rate 0.0313 kg/ha): 9.0
- herbicidal effect rating, MOOVA ([9]; Rate 0.0625 kg/ha): 9.0
- herbicidal effect rating, MOOVA ([9]; Rate 0.1250 kg/ha): 9.0
- herbicidal effect rating, MOOVA ([9]; Rate 0.2500 kg/ha): 9.0
- herbicidal effect rating, MOOVA ([9]; Rate 0.5000 kg/ha): 9.0
- herbicidal effect rating, SAGPY (Sagittaria pygmaea, L. [10]; Rate 0.0313 kg/ha): 0.0
- herbicidal effect rating, SAGPY (Sagittaria pygmaea, L. [10]; Rate 0.0625 kg/ha): 0.0
- herbicidal effect rating, SAGPY (Sagittaria pygmaea, L. [10]; Rate 0.1250 kg/ha): 0.0
- herbicidal effect rating, SAGPY (Sagittaria pygmaea, L. [10]; Rate 0.2500 kg/ha): 4.0
- herbicidal effect rating, SAGPY (Sagittaria pygmaea, L. [10]; Rate 0.5000 kg/ha): 7.0
- herbicidal effect rating, ORYSAT (rice tolerance) ([11]; 0.0625 kg/ha): 2.0
- herbicidal effect rating, ORYSAT (rice tolerance) ([11]; 0.1250 kg/ha): 2.0
- herbicidal effect rating, ORYSAT (rice tolerance) ([11]; 0.2500 kg/ha): 3.0
- herbicidal effect rating, ORYSAT (rice tolerance) ([11]; 0.5000 kg/ha): 3.0
- herbicidal effect rating, ORYSAT (rice tolerance) ([12]; Rate 0.0313 kg/ha): 0.0
- herbicidal effect rating, ORYSAT (rice tolerance) ([12]; Rate 0.0625 kg/ha): 0.0
- herbicidal effect rating, ORYSAT (rice tolerance) ([12]; Rate 0.1250 kg/ha): 0.0
- herbicidal effect rating, ORYSAT (rice tolerance) ([12]; Rate 0.2500 kg/ha): 1.0
- herbicidal effect rating, ORYSAT (rice tolerance) ([12]; Rate 0.5000 kg/ha): 1.0
